Values of other authors, collected in US11707478B2, “Method for increasing uridine concentration in blood plasma” (N.V. Nutricia, priority 2016, dated 2023).

Tests used:
[1] = oral administration of uridine, Klubes 1986
CNT 1 = target: T1, CNT 1 (Homo sapiens, UniProt O00337); details: CNT 1 in the gut and in many other cells; read-out: apparent Km value of main transporter
T1 sequence (O00337 1-649): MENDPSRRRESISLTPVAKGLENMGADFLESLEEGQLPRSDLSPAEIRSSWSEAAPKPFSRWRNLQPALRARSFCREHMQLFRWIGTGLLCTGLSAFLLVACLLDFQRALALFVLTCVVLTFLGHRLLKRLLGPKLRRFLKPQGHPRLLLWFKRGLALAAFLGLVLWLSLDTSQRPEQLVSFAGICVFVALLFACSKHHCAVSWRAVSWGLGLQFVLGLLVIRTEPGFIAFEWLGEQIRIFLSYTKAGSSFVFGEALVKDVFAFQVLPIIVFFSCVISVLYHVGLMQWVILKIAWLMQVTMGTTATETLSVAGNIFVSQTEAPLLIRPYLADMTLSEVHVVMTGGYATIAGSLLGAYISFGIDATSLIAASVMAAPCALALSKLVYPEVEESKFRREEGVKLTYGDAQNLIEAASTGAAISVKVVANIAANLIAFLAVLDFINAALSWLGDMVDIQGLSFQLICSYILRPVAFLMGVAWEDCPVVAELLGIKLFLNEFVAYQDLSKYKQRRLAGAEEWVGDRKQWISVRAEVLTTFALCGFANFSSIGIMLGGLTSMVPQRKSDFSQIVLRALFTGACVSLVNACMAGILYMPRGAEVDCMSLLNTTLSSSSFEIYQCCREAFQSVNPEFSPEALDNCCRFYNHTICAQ

## O=c1ccn([C@@H]2O[C@H](CO)[C@@H](O)[C@H]2O)c(=O)[nH]1 [Uridine, 1-[(2R,3R,4S,5R)-3,4-dihydroxy-5-(hydroxymethyl)oxolan-2-yl]pyrimidine-2,4-dione]
[1]
  bioavailability: about 7%
CNT 1
  Km: 6 to 16 µM
